In ChEMBL document CHEMBL4823282, “Novel Broad-Spectrum Antimicrobial Peptide Derived from Anoplin and Its Activity on Bacterial Pneumonia in Mice” (J Med Chem, 2021):
Converted amounts (≈) assume the structure as drawn. Where a SMILES comes first, the peptide text is derived from it.

Experiments:
Acinetobacter baumannii = experiment: Antibacterial activity against Acinetobacter baumannii ATCC 19606 incubated for 18 hrs by CLSI based broth dilution method; type: functional; details: ATCC 19606 = CIP 70.34 = JCM 6841
[1] = Selectivity ratio of MHC10 for BALB/C mouse erythrocytes to MIC for gram positive bacteria; type: toxicity
Staphylococcus aureus = experiment: Antibacterial activity against Staphylococcus aureus ATCC 25923 incubated for 18 hrs by CLSI based broth dilution method; type: functional
Enterococcus faecalis = experiment: Antibacterial activity against Enterococcus faecalis ATCC 29212 incubated for 18 hrs by CLSI based broth dilution method; type: functional
Bacteria [2] = experiment: Antibacterial activity against Gram-positive bacteria incubated for 18 hrs by CLSI based broth dilution method; type: functional
Pseudomonas aeruginosa [3] = experiment: Synergistic antibacterial activity against Pseudomonas aeruginosa ATCC 27853 at 2 times MIC incubated for 18 to 24 hrs in presence of 2 times MIC of polymyxin B by broth microdilution assay based checkerboard assay; type: functional; details: time 18-24 hrs
Bacteria [4] = experiment: Antibacterial activity against Gram-negative bacteria incubated for 18 hrs by CLSI based broth dilution method; type: functional
Bacillus subtilis = experiment: Antibacterial activity against Bacillus subtilis ATCC 23857 incubated for 18 hrs by CLSI based broth dilution method; type: functional
[5] = test system: Staphylococcus epidermidis; experiment: Antibacterial activity against Staphylococcus epidermidis ATCC 12228 incubated for 18 hrs by CLSI based broth dilution method; type: functional
[6] = Cytotoxicity against human glomerular mesangial cells incubated for 12 hrs by MTT assay; type: cell-based; details: Glomerular mesangial cell
Fungi = experiment: Antibacterial activity against fungi incubated for 18 hrs by CLSI based broth dilution method; type: functional
Bacteria [7] = experiment: Antibacterial activity against bacteria incubated for 18 hrs by CLSI based broth dilution method; type: functional
Klebsiella pneumoniae = experiment: Antibacterial activity against Klebsiella pneumoniae ATCC 700603 incubated for 18 hrs by CLSI based broth dilution method; type: functional
Escherichia coli = experiment: Antibacterial activity against Escherichia coli ATCC 25922 incubated for 18 hrs by CLSI based broth dilution method; type: functional
Pseudomonas aeruginosa [8] = experiment: Synergistic antibacterial activity against Pseudomonas aeruginosa ATCC 27853 at 2 times MIC incubated for 18 to 24 hrs in presence of 2 times MIC of rifampicin by broth microdilution assay based checkerboard assay; type: functional; details: time 18-24 hrs
[9] = Selectivity ratio of MHC10 for BALB/C mouse erythrocytes to MIC for gram-negative bacteria; type: toxicity
Pseudomonas aeruginosa [10] = experiment: Antibacterial activity against Pseudomonas aeruginosa ATCC 27853 incubated for 18 hrs by CLSI based broth dilution method; type: functional
Erythrocyte = experiment: Hemolytic activity in BALB/C mouse erythrocytes incubated for 1 hr by absorbance method; type: ADME, cell-based
[11] = Selectivity ratio of MHC10 for BALB/C mouse erythrocytes to MIC for fungi; type: toxicity
[12] = Selectivity ratio of MHC10 for BALB/C mouse erythrocytes to MIC for bacteria; type: toxicity

Row | Compound | MIC (Acinetobacter baumannii) | MIC (Staphylococcus aureus) | MIC (Enterococcus faecalis) | MIC (Bacteria [2]) | MIC (Bacteria [4]) | MIC (Bacillus subtilis) | MIC [5] | MIC (Fungi) | MIC (Bacteria [7]) | MIC (Klebsiella pneumoniae) | MIC (Escherichia coli) | MIC (Pseudomonas aeruginosa [10]) | selectivity ratio at 18 h [1] | FIC (Pseudomonas aeruginosa [3]) | IC50 [6] | FIC (Pseudomonas aeruginosa [8]) | selectivity ratio [9] | MHC10 (Erythrocyte) | selectivity ratio [11] | selectivity ratio [12]
1 | N=C(N)NCCC[C@H](NC(=O)[C@H](CCCCN)NC(=O)[C@H](Cc1c[nH]c2ccccc12)NC(=O)[C@H](Cc1c[nH]c2ccccc12)NC(=O)[C@@H](N)CCCCN)C(=O)N[C@@H](Cc1c[nH]c2ccccc12)C(=O)N[C@@H](CCCCN)C(=O)N[C@@H](CCCCN)C(=O)N[C@@H](Cc1c[nH]c2ccccc12)C(=O)N[C@@H](Cc1c[nH]c2ccccc12)C(N)=O (H-KWWKRWKKWW-NH2) | 8 µM (≈ 12.9 µg/mL) | 8 µM (≈ 12.9 µg/mL) | 16 µM (≈ 25.9 µg/mL) | 8 µM (≈ 12.9 µg/mL) | 11.3 µM (≈ 18.3 µg/mL) | 4 µM (≈ 6.47 µg/mL) | 8 µM (≈ 12.9 µg/mL) | 9.51 µM (≈ 15.4 µg/mL) | 9.51 µM (≈ 15.4 µg/mL) | 16 µM (≈ 25.9 µg/mL) | 16 µM (≈ 25.9 µg/mL) | 16 µM (≈ 25.9 µg/mL) | 9.71 | 0.25 | 19.8 µM | 0.3125 | 6.87 | 77.65 µM | 8.16 | 8.16
2 | CC(C)C[C@H](NC(=O)[C@H](Cc1c[nH]c2ccccc12)NC(=O)CN)C(=O)N[C@@H](CCCCN)C(=O)N[C@@H](CCCNC(=N)N)C(=O)N[C@@H](Cc1c[nH]c2ccccc12)C(=O)N[C@@H](CCCCN)C(=O)N[C@H](C(=O)N[C@@H](CC(C)C)C(=O)N[C@@H](Cc1c[nH]c2ccccc12)C(N)=O)[C@@H](C)O (H-GWLKRWKTLW-NH2) | 32 µM (≈ 43.9 µg/mL) | 16 µM (≈ 22 µg/mL) | 64 µM (≈ 87.9 µg/mL) | 26.9 µM (≈ 36.9 µg/mL) | 16 µM (≈ 22 µg/mL) | 16 µM (≈ 22 µg/mL) | 32 µM (≈ 43.9 µg/mL) | 20.8 µM (≈ 28.5 µg/mL) | 20.8 µM (≈ 28.5 µg/mL) | 16 µM (≈ 22 µg/mL) | 16 µM (≈ 22 µg/mL) | 16 µM (≈ 22 µg/mL) | 11.9 | 0.25 | 105 µM | 0.3125 | 20 | 320 µM | 15.4 | 15.4
3 | CC[C@H](C)[C@H](NC(=O)[C@H](CCCNC(=N)N)NC(=O)[C@H](CCCNC(=N)N)NC(=O)[C@H](Cc1ccccc1)NC(=O)[C@H](Cc1ccccc1)NC(=O)CN)C(=O)N[C@@H](CCCCN)C(=O)N[C@H](C(=O)N[C@@H](Cc1ccccc1)C(=O)N[C@@H](Cc1ccccc1)C(N)=O)[C@@H](C)O (H-GFFRRIKTFF-NH2) | 64 µM (≈ 84.3 µg/mL) | 16 µM (≈ 21.1 µg/mL) | 64 µM (≈ 84.3 µg/mL) | 32 µM (≈ 42.2 µg/mL) | – | 16 µM (≈ 21.1 µg/mL) | 64 µM (≈ 84.3 µg/mL) | 29.3 µM (≈ 38.7 µg/mL) | 29.3 µM (≈ 38.7 µg/mL) | 32 µM (≈ 42.2 µg/mL) | 32 µM (≈ 42.2 µg/mL) | 32 µM (≈ 42.2 µg/mL) | 16 | 0.5 | 91.9 µM | 0.3125 | 19 | >= 512 uM | 17.4 | 17.4

More lines, main results first:

Row | MIC (Acinetobacter baumannii) | MIC (Staphylococcus aureus) | MIC (Enterococcus faecalis) | MIC (Bacteria [2]) | MIC (Bacteria [4]) | MIC (Bacillus subtilis) | MIC [5] | MIC (Fungi) | MIC (Bacteria [7]) | MIC (Klebsiella pneumoniae) | MIC (Escherichia coli) | MIC (Pseudomonas aeruginosa [10]) | Compound | selectivity ratio at 18 h [1] | FIC (Pseudomonas aeruginosa [3]) | IC50 [6] | FIC (Pseudomonas aeruginosa [8]) | selectivity ratio [9] | MHC10 (Erythrocyte) | selectivity ratio [11] | selectivity ratio [12]
4 | 8 µM (≈ 11.6 µg/mL) | 4 µM (≈ 5.78 µg/mL) | 16 µM (≈ 23.1 µg/mL) | 8 µM (≈ 11.6 µg/mL) | 6.7 µM (≈ 9.69 µg/mL) | 8 µM (≈ 11.6 µg/mL) | 8 µM (≈ 11.6 µg/mL) | 7.34 µM (≈ 10.6 µg/mL) | 7.34 µM (≈ 10.6 µg/mL) | 8 µM (≈ 11.6 µg/mL) | 8 µM (≈ 11.6 µg/mL) | 8 µM (≈ 11.6 µg/mL) | CC[C@H](C)[C@H](NC(=O)[C@H](CCCNC(=N)N)NC(=O)[C@H](CCCCN)NC(=O)[C@H](Cc1c[nH]c2ccccc12)NC(=O)[C@H](Cc1c[nH]c2ccccc12)NC(=O)CN)C(=O)N[C@@H](CCCCN)C(=O)N[C@H](C(=O)N[C@@H](Cc1c[nH]c2ccccc12)C(=O)N[C@@H](Cc1c[nH]c2ccccc12)C(N)=O)[C@@H](C)O (H-GWWKRIKTWW-NH2) | 12.8 | 0.5 | 25.2 µM | 0.5 | 15.3 | 102.54 µM | 14 | 14
5 | 64 µM (≈ 87.2 µg/mL) | 16 µM (≈ 21.8 µg/mL) | 64 µM (≈ 87.2 µg/mL) | 16 µM (≈ 21.8 µg/mL) | 22.6 µM (≈ 30.8 µg/mL) | 16 µM (≈ 21.8 µg/mL) | 4 µM (≈ 5.45 µg/mL) | 19 µM (≈ 25.9 µg/mL) | 19 µM (≈ 25.9 µg/mL) | 32 µM (≈ 43.6 µg/mL) | 16 µM (≈ 21.8 µg/mL) | 16 µM (≈ 21.8 µg/mL) | C[C@@H](O)[C@H](NC(=O)[C@H](CCCCN)NC(=O)[C@H](Cc1c[nH]c2ccccc12)NC(=O)[C@H](CCCNC(=N)N)NC(=O)[C@H](CCCCN)NC(=O)[C@H](Cc1ccccc1)NC(=O)[C@H](Cc1ccccc1)NC(=O)CN)C(=O)N[C@@H](Cc1ccccc1)C(=O)N[C@@H](Cc1ccccc1)C(N)=O (H-GFFKRWKTFF-NH2) | 32 | 0.25 | 48.2 µM | 0.3125 | 22.6 | >= 512 uM | 26.9 | 26.9
6 | 64 µM (≈ 87.5 µg/mL) | 16 µM (≈ 21.9 µg/mL) | 64 µM (≈ 87.5 µg/mL) | 11.3 µM (≈ 15.5 µg/mL) | – | 4 µM (≈ 5.47 µg/mL) | 4 µM (≈ 5.47 µg/mL) | 16 µM (≈ 21.9 µg/mL) | 16 µM (≈ 21.9 µg/mL) | 32 µM (≈ 43.8 µg/mL) | 16 µM (≈ 21.9 µg/mL) | 16 µM (≈ 21.9 µg/mL) | CC[C@H](C)[C@H](NC(=O)[C@H](CCCNC(=N)N)NC(=O)[C@H](CCCCN)NC(=O)[C@H](Cc1ccccc1)NC(=O)[C@H](Cc1c[nH]c2ccccc12)NC(=O)CN)C(=O)N[C@@H](CCCCN)C(=O)N[C@H](C(=O)N[C@@H](Cc1ccccc1)C(=O)N[C@@H](Cc1c[nH]c2ccccc12)C(N)=O)[C@@H](C)O (H-GWFKRIKTFW-NH2) | 34 | 0.25 | 98.3 µM | 0.3125 | 17 | 384 µM | 24 | 24
